Results on 24 compounds are retold here after patent publication US20200087258A1, “INHIBITOR OF CITRATE TRANSPORTER AND THEIR USE IN THERAPY” (Eternygen GmbH, priority 2017, published 2020).

Structures are written as SMILES.

The target of the first assay is T1, INDY (Homo sapiens, UniProt Q86YT5). As to the kind of experiment: 14C-citrate uptake in HepG2 cells endogenously expressing INDY (NaCT). As to conditions: endogenous INDY. Type of assay: cell-based. Here is the method: (§1) The compound was obtained by screening of a library containing more than 50,000 lead-like compounds and fragments. The library was tested using a functional citrate uptake assay with HEK293 cells overexpressing recombinant human INDY. The following hit confirmation was conducted in the same assay system. To confirm the activity of selected compounds on the target INDY another cell assay was conducted. In this assay system citrate uptake was measured using HepG2 cells which endogenously express INDY. Furthermore selectivity of selected compounds was tested for two other transporters in different assay systems. The first transporter was the glutamate transporter GLT-1 tested in a glutamate uptake assays using HEK293 cells overexpressing recombinant human GLT-1. The second transporter was the glucose transporter GLUT1 tested in a glucose uptake assay using Huh-7 cells which endogenously express GLUT1. Compounds were considered to be selective with an at least 5-fold higher activity for INDY than for the other two transporters.
T1 sequence (Q86YT5 whole entry, the tested form may be a part): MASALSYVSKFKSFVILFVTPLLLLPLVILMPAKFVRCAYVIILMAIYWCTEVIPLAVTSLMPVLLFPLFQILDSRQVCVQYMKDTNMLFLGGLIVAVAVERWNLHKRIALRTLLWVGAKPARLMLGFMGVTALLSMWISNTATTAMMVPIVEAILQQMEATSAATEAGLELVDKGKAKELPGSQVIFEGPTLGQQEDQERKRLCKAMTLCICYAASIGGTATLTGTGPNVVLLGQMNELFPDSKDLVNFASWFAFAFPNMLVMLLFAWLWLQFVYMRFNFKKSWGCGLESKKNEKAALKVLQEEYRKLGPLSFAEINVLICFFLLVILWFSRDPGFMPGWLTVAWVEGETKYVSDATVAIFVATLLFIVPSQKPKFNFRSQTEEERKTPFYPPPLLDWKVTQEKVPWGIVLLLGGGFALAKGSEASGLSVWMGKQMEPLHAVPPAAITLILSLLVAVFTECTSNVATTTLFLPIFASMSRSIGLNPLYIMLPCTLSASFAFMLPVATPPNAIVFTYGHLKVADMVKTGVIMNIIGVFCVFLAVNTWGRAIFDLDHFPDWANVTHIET
(§2) Cells were maintained in cell medium using cell culture grade flasks (CellSTACK Corning, 500 cm2 dishes or T175 depending on cell number). The selection antibiotic and G418 (800 μg/ml) was added during cultivation but not for seeding into assay plates. For splitting, cells were washed with PBS (w/o Ca2+, Mg2+, phenol red) and detached with Trypsin/EDTA. Throughout cultivation cells were kept sub-confluent. Detached cells (50,000 cells/well) were seeded in 96-well plates (white, clear bottom from Corning #655098) and incubated over night before usage in the assay. The following media were used. For HEK293 cells expressing INDY MEM (PAA)+10% FCS+1×P/S+2 mM L-Gln; for HEK293 cells expressing GLT-1 DMEM (Gibco)+10% FCS+400 µg/ml G418; for Huh7 cells DMEM (Gibco)+10% FCS+2 mM L-Gin (+1×P/S); for HepG2 cells MEM (PAA, Cat # E15-024)+10% FCS+2 mM L-Gin+1×NEAA+1 mM Na-Pyruvat
(§3) The following assay buffers for the particular uptake reaction were used. Citrate uptake buffer: 120 mM NaCl, 5.4 mM KCl, 0.8 mM MgSO4, 5 mM glucose, 1.8 mM CaCl2, 25 mM Hepes, 25 mM MES, pH 6.5. Glutamate uptake buffer: HBSS, 1 mM CaCl2, 1 mM MgCl2, 20 mM Hepes pH 7.4. Glucose uptake buffer: 25 mM Hepes+25 mM MES pH 7.4, 120 mM NaCl, 5.4 mM KCl, 1.8 mM CaCl2, 0.8 mM MgSO4.
INDY mediated citrate uptake was also determined in HepG2 cells. To determine the uptake of ^14C labelled citrate into cells, HepG2 cells endogenously expressing human NaCT were used. (Gopal et al. 2007 Am J Physiol Gastrointest Liver Physiol 292).
HepG2 cells were seeded into white clear-bottom 96-well plates (50,000/well) coated with collagen and incubated at 37° C. for 16-24 hours. After that plates were washed once with assay buffer using automated washing/LS 405 Selectors, BioTek ending with a buffer volume of 40 μl. Then 5 μl of compound solution in assay buffer was added and incubated for 5 min at 37° C. in cell incubator, HERA cell Heraeus. Afterwards 10 μl of substrate 14C-citrate (10 nM) were added and incubated for another 90 min at 37° C. in cell incubator, HERAcell. Then plates were washed 3× with 200 μl buffer and […] cell lysis induced by adding 50 μl ice-cold NaOH (100 mM). Plates were incubated for 25 min at RT on a plate shaker and afterwards 200 μl scintillation fluid was added and incubated for 15 min on a plate shaker at RT and for another 15 min without shaking at RT. Plates were measured using a TopCount system. As a positive control 5 mM citrate was applied. It is possible to use this assay also in analogy in a 384-well plate format.
As to `O=C(NCc1ccccn1)C1CCN(S(=O)(=O)/C=C/c2ccccc2)CC1` [Example 3, 1-[(E)-2-phenylethenesulfonyl]-N-(pyridin-2-ylmethyl)piperidine-4-carboxamide], the half-inhibitory concentration (IC50) came out at 11.3 µM.

`COc1ccc(S(=O)(=O)N2CCC(C(=O)NCc3ccccc3F)CC2)cc1` [Example 4, N-[(2-fluorophenyl)methyl]-1-(4-methoxybenzenesulfonyl) piperidine-4-carboxamide] came in with an IC50 of 5.7 µM.

For another assay, the target named is T1, INDY. The assay is described as follows: 14C-citrate uptake in HEK293 cells overexpressing recombinant human INDY (NaCT). Type of assay: cell-based. Also noted: expressed in transfected cells; host or cells: HEK293.
Conditions: not given
Here is the method:
as §1, §2, §3
INDY mediated citrate uptake was determined in HEK293 cells. To determine the uptake of ^14C labelled citrate into cells, HEK293 cells over-expressing human NaCT were used. Cloning of human NaCT was done in analogy as described in Birkenfeld et al. (Birkenfeld et al., 2011, Cell Metabolism 14, 184-195, 2011).
Human NaCT HEK293 cells were seeded into white clear-bottom 96-well plates (50,000/well) in the presence of 4 μg/ml Poly-D-Lysine and incubated at 37° C. for 16-24 hours. On the days of the assay the plates were washed once with assay buffer using automated washing/LS 405 Selectors, BioTek ending with a buffer volume of 40 μl. Then 5 μl of compound solution in assay buffer was added and incubated for 5-30 min at 37° C. in cell incubator, HERA cell Heraeus. Afterwards 10 μl of substrate 14C-citrate ([…]/[…] per well) were added and incubated for another 20-90 min at 37° C. in cell incubator, HERAcell. Then plates were washed twice with 200 μl ice-cold assay buffer and residual volume was discarded. For cell lysis 50 μl ice-cold NaOH (100 mM) was added and incubated for 15 minutes at RT on a plate shaker. Finally, 200 μl scintillation fluid (scintillator OptiPhase Supermix, Perkin Elmer) was added. After 15 min incubation at RT without shaking, plates were measured using a TopCount reader system (Perkin Elmer). As a positive control 10 mM citrate was applied. It is possible to use this assay also in analogy in a 384-well plate format.
`O=C(NCc1ccccn1)C1CCN(S(=O)(=O)c2cccc(Cl)c2Cl)CC1` [Example 83, 1-(2,3-dichlorobenzenesulfonyl)-N-[(pyridin-2-yl)methyl]pipendine-4-carboxamide]: the IC50 is above 20 µM.

For `COC(=O)c1cccc(S(=O)(=O)N2CCC(C(=O)NCc3ccccc3F)CC2)c1` [Example 88, methyl 3-[(4-{[(2-fluorophenyl)methyl]carbamoyl}piperidin-1-yl)sulfonyl]benzoate], the IC50 is above 20 µM.

In the case of `COC(=O)c1ccc(S(=O)(=O)N2CCC(C(=O)NCc3ccccc3F)CC2)cc1` [Example 89, methyl 4-[(4-{[(2-fluorophenyl)methyl]carbamoyl}piperidin-1-yl)sulfonyl]benzoate], the IC50 was above 20 µM.

With `O=C(O)c1cccc(S(=O)(=O)N2CCC(C(=O)NCc3ccccc3F)CC2)c1` [Example 90, 3-[(4-{[(2-fluorophenyl)methyl]carbamoyl}piperidin-1-yl)sulfonyl]benzoic acid], the IC50 was above 20 µM.

In the case of `O=C(O)c1ccc(S(=O)(=O)N2CCC(C(=O)NCc3ccccc3F)CC2)cc1` [Example 91, 4-[(4-{[(2-fluorophenyl)methyl]carbamoyl}piperidin-1-yl)sulfonyl]benzoic acid], the IC50 was above 20 µM.

In the case of `O=C(NCc1ccccn1)C1CCN(S(=O)(=O)c2cccc(OC(F)(F)F)c2)CC1` [Example 93, N-[(pyridin-2-yl)methyl]-1-[3-(trifluoromethoxy)benzenesulfonyl]piperidine-4-carboxamide], the 50% inhibitory concentration (IC50) is 16.4 µM.

Regarding `O=Cc1ccc(S(=O)(=O)N2CCC(C(=O)NCc3ccccc3F)CC2)cc1` [Example 94, N-[(2-fluorophenyl)methyl]-1-(4-formylbenzenesulfonyl)piperidine-4-carboxamide], the IC50 was above 20 µM.

Regarding `NCc1ccccc1CNC(=O)C1CCN(S(=O)(=O)c2cc(Cl)cc(Cl)c2)CC1` [Example 98, N-([2-(aminomethyl)phenyl]methyl)-1-(3,5-dichlorobenzenesulfonyl)piperidine-4-carboxamide], the IC50 is above 20 µM.

For `O=C(NCc1ccccc1F)C1CCN(S(=O)(=O)c2ccc(CO)cc2)CC1` [Example 100, N-[(2-fluorophenyl)methyl]-1-[4-(hydroxymethyl)benzenesulfonyl]piperidine-4-carboxamide], the IC50 is above 20 µM.

As for `CN(C)CCOc1ccc(S(=O)(=O)N2CCC(C(=O)NCc3ccccc3F)CC2)cc1` [Example 102, 1-(4-[2-(dimethylamino)ethoxy]benzenesulfonyl)-N-[(2-fluorophenyl)methyl]piperidine-4-carboxamide], the IC50 is above 20 µM.

Take `O=C(NCc1ccc(CO)cc1)C1CCN(S(=O)(=O)c2ccc(C(F)(F)F)cc2)CC1` [Example 104, N-([4-(hydroxymethyl)phenyl]methyl)-1-[4-(trifluoromethyl)benzenesulfonyl]piperidine-4-carboxamide]: the concentration for half-maximal inhibition (IC50) was above 20 µM.

`O=C(NCc1ccccc1F)C1CCN(S(=O)(=O)c2ccc(CN3CCCC3)cc2)CC1` [Example 105, N-[(2-fluorophenyl)methyl]-1-{4-[(pyrrolidin-1-yl)methyl]benzenesulfonyl}piperidine-4-carboxamide]: the IC50 was above 20 µM.

Consider `CC(=O)c1cccc(S(=O)(=O)N2CCC(C(=O)NCc3ccccc3F)CC2)c1` [Example 106, 1-(3-acetylbenzenesulfonyl)-N-[(2-fluorophenyl)methyl]piperidine-4-carboxamide], for which the half-maximal inhibitory concentration (IC50) came out at 11.1 µM.

As for `CC(O)c1cccc(S(=O)(=O)N2CCC(C(=O)NCc3ccccc3F)CC2)c1` (stereo not drawn) [Example 107, N-[(2-fluorophenyl)methyl]-1-[3-(1-hydroxyethyl)benzenesulfonyl]piperidine-4-carboxamide], the IC50 turned out to be 13.2 µM.

As for `C/C(=N\O)c1cccc(S(=O)(=O)N2CCC(C(=O)NCc3ccccc3F)CC2)c1` [Example 108, N-[(2-fluorophenyl)methyl]-1-{3-[(1E)-1-(hydroxyimino)ethyl]benzenesulfonyl}piperidine-4-carboxamide], the IC50 was 20.4 µM.

In the case of `CCCNC(C)c1cccc(S(=O)(=O)N2CCC(C(=O)NCc3ccccc3F)CC2)c1` (stereo not drawn) [Example 109, N-[(2-fluorophenyl)methyl]-1-{3-[1-(propylamino)ethyl]benzenesulfonyl}piperidine-4-carboxamide], the IC50 was above 20 µM.

In the case of `CNC(C)c1cccc(S(=O)(=O)N2CCC(C(=O)NCc3ccccc3F)CC2)c1` (stereo not drawn) [Example 110, N-[(2-fluorophenyl)methyl]-1-{3-[1-(methylamino)ethyl]benzenesulfonyl}piperidine-4-carboxamide], the IC50 was above 20 µM.

On to `CCN(CC)C(C)c1cccc(S(=O)(=O)N2CCC(C(=O)NCc3ccccc3F)CC2)c1` (stereo not drawn) [Example 113, 1-{3-[1-(diethylamino)ethyl]benzenesulfonyl}-N-[(2-fluorophenyl)methyl]piperidine-4-carboxamide], for which the IC50 is above 20 µM.

`O=C(O)c1cccc(CNC(=O)C2CCN(S(=O)(=O)c3cc(Cl)cc(Cl)c3)CC2)c1` [Example 119, 3-({[1-(3,5-dichlorobenzenesulfonyl)piperidin-4-yl]formamido}methyl)benzoic acid]: the IC50 is above 20 µM.

Consider `Cc1cc(S(=O)(=O)N2CCC(C(=O)NCc3ccccn3)CC2)ccc1Cl` [Example 121, 1-(4-chloro-3-methylbenzenesulfonyl)-N-[(pyridin-2-yl)methyl]piperidine-4-carboxamide], for which the IC50 was 18.8 µM.

`Cc1ccc(S(=O)(=O)N2CCC(C(=O)NCc3ccccn3)CC2)cc1Cl` [Example 122, 1-(3-chloro-4-methylbenzenesulfonyl)-N-[(pyridin-2-yl)methyl]piperidine-4-carboxamide]: the IC50 was 18.8 µM.

Regarding `CN(Cc1ccccn1)C(=O)C1CCN(S(=O)(=O)c2cc(Cl)cc(Cl)c2)CC1` [Example 128, 1-(3,5-dichlorobenzenesulfonyl)-N-methyl-N-[(pyridin-2-yl)methyl]piperidine-4-carboxamide], the 50% inhibitory concentration (IC50) is above 20 µM.

In general, IC50 refers to the midpoint of a concentration-inhibition curve.
